# Data published in publication PMC10294832, “Investigation of Naphthyl–Polyamine Conjugates as Antimicrobials and Antibiotic Enhancers” (Antibiotics, 2023).
# Where “and” joins values, the source holds several entries; their conditions need not be identical. Equal values may be shown once. Read-outs that look alike come from different tables or passages of the source.
# Columns and labels:
# [1] = system: S. aureus (ATCC 25,923 or ATCC 29213); assay: Antimicrobial MIC, S. aureus; type: cell-based, Staphylococcus aureus; conditions: mean (n = 3)
# Method: (§1) The susceptibility of bacterial strains S. aureus (ATCC 25,923 or 29213), E. coli (ATCC 25922), and P. aeruginosa (ATCC 27853) to antibiotics and compounds was determined according to previously reported protocols. Additional antimicrobial evaluation against MRSA (ATCC 43300), Klebsiella pneumoniae (ATCC 700603), Acinetobacter baumannii (ATCC 19606), Candida albicans (ATCC 90028), and Cryptococcus neoformans (ATCC 208821) was undertaken at the Community for Open Antimicrobial Drug Discovery at The University of Queensland (Australia) according to their standard protocols as reported previously.
# MRSA (ATCC 43300) = assay: Antimicrobial MIC, MRSA; type: cell-based, methicillin-resistant Staphylococcus aureus; conditions: read-out: MIC MRSA
# Method: as §1
# [2] = system: P. aeruginosa (PAO1 or ATCC 27853); assay: Antimicrobial MIC, P. aeruginosa; type: cell-based; conditions: Pseudomonas aeruginosa
# Method: as §1
# E. coli (ATCC 25922) [3] = assay: Antimicrobial MIC, E. coli; type: cell-based, Escherichia coli; conditions: mean (n = 2)
# Method: as §1
# [4] = system: K. pneumoniae (ATCC 700603); assay: Antimicrobial MIC, K. pneumoniae; type: cell-based; conditions: Klebsiella pneumoniae, ATCC700603, mean (n = 2)
# Method: as §1
# [5] = system: A. baumannii (ATCC 19606); assay: Antimicrobial MIC, A. baumannii; type: cell-based, Acinetobacter baumannii; conditions: mean (n = 2)
# Method: as §1
# C. albicans (ATCC 90028) = assay: Antifungal MIC, C. albicans; type: cell-based; conditions: Candida albicans, ATCC90028, mean (n = 2)
# Method: as §1
# [6] = system: C. neoformans (ATCC 208821); assay: Antifungal MIC, C. neoformans; type: cell-based, Cryptococcus neoformans; conditions: mean (n = 2)
# Method: as §1
# Cytotoxicity assay = type: cell-based, human; conditions: human, HEK293 human embryonic kidney cells, concentration at 50% cytotoxicity on HEK293 cells; mean (n = 2)
# Method: Cytotoxicity assays were conducted using the protocols previously reported.
# human red blood cells = assay: Hemolytic assay; type: cell-based; conditions: concentration at 10% hemolytic activity on human red blood cells; mean (n = 2)
# Method: Hemolysis assays were conducted using the protocols previously reported.
# [7] = system: P. aeruginosa (ATCC 27853); assay: Enhancement of doxycycline activity; type: cell-based, Pseudomonas aeruginosa; conditions: for Dox/P.a: concentration required to restore doxycycline activity (combination MIC): doxycycline fixed at 4.5 µM (2 µg/mL); for Dox/P.a: concentration required to restore doxycycline activity (combination MIC) / Concentration of test compound required to restore doxycycline activity: P. aeruginosa (ATCC 27853); for Dox/P.a fold change: ratio between intrinsic MIC of test compound and combination MIC, doxycycline 4.5 µM, P. aeruginosa
# E. coli (ATCC 25922) [8] = assay: Enhancement of erythromycin activity; type: cell-based, Escherichia coli; conditions: for Eryth/E.c: concentration required to restore erythromycin activity (combination MIC): erythromycin fixed at 10.9 µM (8 µg/mL), E. coli (ATCC 25922); for Eryth/E.c fold change: ratio between intrinsic MIC of test compound and combination MIC, erythromycin 10.9 µM, E. coli
# Method: Restoring enhancer concentrations were determined using previously reported protocols.
# [9] = Staphylococcus aureus, MRSA (ATCC 43300), mean (n = 2)
# [10] = P. aeruginosa (PAO1 or ATCC 27853), mean (n = 3), read-out: MIC P. a
# [11] = Escherichia coli, ATCC25922, E. coli (ATCC 25922)
# [12] = Acinetobacter baumannii, ATCC19606, A. baumannii (ATCC 19606)
# [13] = Cryptococcus neoformans, ATCC208821, C. neoformans (ATCC 208821)
SMILES,MIC ([1]; Staphylococcus aureus),MIC (MRSA (ATCC 43300); [9]),"MIC [2, 10]",MIC (E. coli (ATCC 25922) [3]; [11]),MIC [4],"MIC [5, 12]",MIC (C. albicans (ATCC 90028)),"MIC [6, 13]",IC50 (Cytotoxicity assay),Hemolysis HC10 (human red blood cells),Dox/P.a: concentration required to restore doxycycline activity (combination MIC) [7],Dox/P.a fold change [7],Eryth/E.c: concentration required to restore erythromycin activity (combination MIC) (E. coli (ATCC 25922) [8]),Eryth/E.c fold change (E. coli (ATCC 25922) [8]),also measured
"O=C(CCC(=O)Nc1cccc2ccccc12)NCCCNCCCCCCCCCCCCNCCCNC(=O)CCC(=O)Nc1cccc2ccccc12.O=C(O)C(F)(F)F.O=C(O)C(F)(F)F [Compound 18f, N^1,N^12-Bis(3-(4-(Naphthalen-1-ylamino)-4-oxobutanamido)propyl)dodecane-1,12-diaminium 2,2,2-trifluoroacetate]",3.12 µM,≤ 0.25 µM,> 100 µM,6.3 to 12.5 µM,> 32 µM,> 32 µM,> 32 µM,≤ 0.25 µM,> 32.2 µM,>32.2 µM,50.3 µM,> 2 fold,6.29 µM,2 fold,MIC [1]: 3.15 µM; MIC (E. coli (ATCC 25922) [3]; E. coli (ATCC 25922)): 12.5 µM
"O=C(CCC(=O)Nc1cccc2ccccc12)NCCCNCCCCNCCCNC(=O)CCC(=O)Nc1cccc2ccccc12.O=C(O)C(F)(F)F.O=C(O)C(F)(F)F [Compound 18a, N^1,N^4-Bis(3-(4-(naphthalen-1-ylamino)-4-oxobutanamido)propyl)butane-1,4-diaminium 2,2,2-trifluoroacetate]",568 µM,> 36.3 µM,568 µM,568 µM,> 36.3 µM,> 36.3 µM,> 36.3 µM,> 36.3 µM,,,568 µM,1 fold,568 µM,1 fold,
"O=C(NCCCNCCCCCCCCCCNCCCNC(=O)c1ccc2ccccc2c1)c1ccc2ccccc2c1.O=C(O)C(F)(F)F.O=C(O)C(F)(F)F [Compound 19e, N^1,N^10-Bis(3-(2-naphthamido)propyl)decane-1,10-diaminium 2,2,2-trifluoroacetate]",30 µM,1.22 µM,608 µM,122 µM,38.9 µM,38.9 µM,38.9 µM,4.86 µM,4.75 µM,>38.9 µM,608 µM,1 fold,60.8 µM,2 fold,
"O=C(NCCCNCCCCCCCCCCCCNCCCNC(=O)c1ccc2ccccc2c1)c1ccc2ccccc2c1.O=C(O)C(F)(F)F.O=C(O)C(F)(F)F [Compound 19f, N^1,N^12-Bis(3-(2-naphthamido)propyl)dodecane-1,12-diaminium 2,2,2-trifluoroacetate]",100 µM,0.29 µM,300 µM,300 µM,> 37.6 µM,0.29 µM,> 37.6 µM,0.29 µM,> 37.6 µM,>37.6 µM,300 µM,1 fold,300 µM,1 fold,"MIC (MRSA (ATCC 43300); MRSA (ATCC 43300), mean (n = 2)): 0.294 µM; MIC ([5]; A. baumannii (ATCC 19606)): 0.294 µM; MIC ([6]; C. neoformans (ATCC 208821)): 0.294 µM"
"O=C(CCC(=O)Nc1ccc2ccccc2c1)NCCCNCCCCCCCNCCCNC(=O)CCC(=O)Nc1ccc2ccccc2c1.O=C(O)C(F)(F)F.O=C(O)C(F)(F)F [Compound 20c, N^1,N^7-Bis(3-(4-(naphthalen-2-ylamino)-4-oxobutanamido)propyl)heptane-1,7-diaminium 2,2,2-trifluoroacetate]",25 µM,2.2 µM,> 200 µM,25 µM,> 34.7 µM,> 34.7 µM,> 34.7 µM,≤ 0.27 µM,> 34.7 µM,>34.7 µM,6.25 µM,,12.5 µM,2 fold,
"OC(Cn1cncn1)(Cn1cncn1)c1ccc(F)cc1F [fluconazole, reference compound]",,,,,,,0.4 µM,26 µM,,,,,,,
"O=C(NCCCNCCCCCCCCNCCCNC(=O)c1cccc2ccccc12)c1cccc2ccccc12.O=C(O)C(F)(F)F.O=C(O)C(F)(F)F [Compound 17d, N^1,N^8-Bis(3-(1-naphthamido)propyl)octane-1,8-diaminium 2,2,2-trifluoroacetate]",50 µM,> 40.3 µM,> 100 µM,100 µM,> 40.3 µM,> 40.3 µM,> 40.3 µM,> 40.3 µM,> 40.3 µM,>40.3 µM,,,31.5 µM,3 fold,
"CC/C(=C(\c1ccccc1)c1ccc(OCCN(C)C)cc1)c1ccccc1 [tamoxifen, reference compound]",,,,,,,,,24 µM,,,,,,
"[H]/N=C(/N)N[C@H]1[C@H](O)[C@@H](O)[C@H](O[C@@H]2O[C@@H](C)[C@](O)(C=O)[C@H]2O[C@@H]2O[C@@H](CO)[C@H](O)[C@@H](O)[C@@H]2NC)[C@@H](N/C(N)=N\[H])[C@@H]1O [streptomycin, reference compound]",21.5 µM,,21.5 µM,,,,,,,,,,,,
"C[C@H]1c2cccc(O)c2C(=O)C2=C(O)[C@]3(O)C(=O)C(C(N)=O)=C(O)[C@@H](N(C)C)[C@@H]3[C@@H](O)[C@@H]21 [doxycycline, reference compound]",,,,,,,,,,,,,,,"MIC ([2]; antibiotic alone, P. aeruginosa, read-out: intrinsic MIC against P. aeruginosa): 40 µg/mL and 90 µM"
"O=C(CCC(=O)Nc1ccc2ccccc2c1)NCCCNCCCCNCCCNC(=O)CCC(=O)Nc1ccc2ccccc2c1.O=C(O)C(F)(F)F.O=C(O)C(F)(F)F [Compound 20a, N^1,N^4-Bis(3-(4-(naphthalen-2-ylamino)-4-oxobutanamido)propyl)butane-1,4-diaminium 2,2,2-trifluoroacetate]",57 µM,18.2 µM,568 µM,227 µM,> 36.3 µM,> 36.3 µM,> 36.3 µM,> 36.3 µM,> 36.3 µM,>36.3 µM,28 µM,20 fold,,,Concentration of test compound required to restore doxycycline activity ([7]; doxycycline concentration 2 µg/mL): 28.4 µM; Concentration of test compound required to restore doxycycline activity ([7]; doxycycline concentration 4 µg/mL): 14.2 µM; Concentration of test compound required to restore doxycycline activity ([7]; doxycycline concentration 6 µg/mL): 14.2 µM; Concentration of test compound required to restore doxycycline activity ([7]; doxycycline concentration 8 µg/mL): 3.5 µM
"O=C(N[C@H](CO)[C@H](O)c1ccc([N+](=O)[O-])cc1)C(Cl)Cl [chloramphenicol, reference compound]",1.5 to 3 µM,,,,,,,,,,,,,,
"CN[C@H](CC(C)C)C(=O)N[C@H]1C(=O)N[C@@H](CC(N)=O)C(=O)N[C@H]2C(=O)N[C@H]3C(=O)N[C@H](C(=O)N[C@H](C(=O)O)c4cc(O)cc(O)c4-c4cc3ccc4O)[C@H](O)c3ccc(c(Cl)c3)Oc3cc2cc(c3O[C@@H]2O[C@H](CO)[C@@H](O)[C@H](O)[C@H]2O[C@H]2C[C@](C)(N)[C@H](O)[C@H](C)O2)Oc2ccc(cc2Cl)[C@H]1O [vancomycin, reference compound]",,,,,,,,,,,,,,,MIC (MRSA (ATCC 43300); Staphylococcus aureus): 0.7 µM
